Converted amounts (≈) assume the structure as drawn. Where two headings read alike, the source gives them in different places.
Assays:
[1] = system: M. smegmatis 607 ™ (RB mutant); format: cell-based, Mycobacterium smegmatis; details: dark condition; triplicated
[2] = system: Mycobacterium smagmatis 607 ™; experiment: MIC, broth dilution method, dark condition; format: cell-based, Mycobacterium smegmatis; details: for MIC: read-out: MIC (μg/mL) against M. smegmatis 607 ™ (wild-type)
[3] = system: biofilms of S. aureus 6508™; experiment: Biofilm eradication assay; format: cell-based, Staphylococcus aureus; details: linezolid at 600 μg/mL
Experimental: 62:394-399 (2013)], and was used as a control.
Linezolid was applied as a positive control at very high concentration of 600 μg/mL (>100×MIC for the planktonic cells) in biofilm assays reported by Kurosu et al., Molecules 27:322 (2022).

Capreomycin
MIC (μg/mL) against M. smegmatis 607 ™ (RB mutant) [1]: 3.13 µg/mL | MIC (μg/mL) against M. smegmatis 607 ™ (wild-type) ([2]; dark condition, triplicated): 3.13 µg/mL

NC[C@H]1O[C@@H](O[C@H]([C@H]2O[C@@H](n3ccc(=O)[nH]c3=O)[C@H](O)[C@@H]2O)[C@H](NCCCC(=O)NCc2ccc(N3CCC(Oc4ccc(OC(F)(F)F)cc4)CC3)cc2)C(N)=O)[C@H](O)[C@@H]1O [APPB, aminouridyl phenoxypiperidinylbenzyl butanamide]
MIC (μg/mL) against M. smegmatis 607 ™ (RB mutant) [1]: 0.20 µg/mL (≈ 0.227 µM) | MIC (μg/mL) against M. smegmatis 607 ™ (wild-type) ([2]; dark condition, triplicated): 0.20 µg/mL (≈ 0.227 µM)

NCC[C@H](O)C(=O)N[C@@H]1C[C@H](N)[C@@H](O[C@H]2O[C@H](CN)[C@@H](O)[C@H](O)[C@H]2O)[C@H](O)[C@H]1O[C@H]1O[C@H](CO)[C@@H](O)[C@H](N)[C@H]1O [Amikacin]
MIC ([2]; dark condition, triplicated): 0.78 µg/mL (≈ 1.33 µM)

CC(=O)NC[C@H]1CN(c2ccc(N3CCOCC3)c(F)c2)C(=O)O1 [linezolid, reference compound]
biofilm eradication efficacy of positive control compared with RB [3]: the same level of efficacy

CO[C@H]1/C=C/O[C@@]2(C)Oc3c(C)c(O)c4c(O)c(c(/C=N/N5CCN(C)CC5)c(O)c4c3C2=O)NC(=O)/C(C)=C\C=C\[C@H](C)[C@H](O)[C@@H](C)[C@@H](O)[C@@H](C)[C@H](OC(C)=O)[C@@H]1C [Rifampicin]
MIC [2]: 1.56 µg/mL (≈ 1.9 µM)

NNC(=O)c1ccncc1 [Isoniazid (INH), Isoniazid]
MIC ([2]; dark condition, triplicated): 1.56 µg/mL (≈ 11.4 µM)

CCc1cc(C(N)=S)ccn1 [Ethionamide (ETH), Ethionamide]
MIC [2]: 12.5 µg/mL (≈ 75.2 µM)
